# According to patent US20070128217A1 (priority 2003, published 2007):
# Legend:
# [1] = system: antibodies in sera from SARS patients (sera 1a, 1b, 2, 6, 37, 62, London, SARS-yellow, SARS-green); assay type: binding, human; set-up: Binding of serum 6 to linear peptides of protein X1 of SARS-CoV Urbani / Binding of serum 37 to linear peptides of protein X1 of SARS-CoV Urbani / Binding of serum 6 to looped/cyclic peptide (PEPSCAN-ELISA) / Binding of serum 37 to looped/cyclic peptide (PEPSCAN-ELISA) / Binding of serum 37 to looped/cyclic peptides of protein X1 of SARS-CoV Urbani / Binding of serum 6 to linear peptides of protein X2 / Binding of serum 37 to linear peptides of protein X2 / Binding of serum 37 to looped/cyclic peptides of protein X2 of SARS-CoV Urbani / Binding of serum 6 to linear peptides of protein M of SARS-CoV Urbani / Binding of serum 37 to linear peptides of protein M of SARS-CoV Urbani / Binding of serum 6 to looped/cyclic peptides of protein M of SARS-CoV Urbani / Binding of serum 37 to looped/cyclic peptides of protein M of SARS-CoV Urbani / Binding of serum 6 to linear peptides of protein X3 of SARS-CoV Urbani / Binding of serum 37 to linear peptides of protein X3 of SARS-CoV Urbani / Binding of serum 37 to looped/cyclic peptides of protein X3 of SARS-CoV Urbani / Binding of serum 6 to linear peptides of protein X4 of SARS-CoV Urbani / Binding of serum 37 to linear peptides of protein X4 of SARS-CoV Urbani / Binding of serum 37 to looped/cyclic peptides of protein X4 of SARS-CoV Urbani / Binding of serum 6 to linear peptides of protein X5 of SARS-CoV Urbani / Binding of serum 37 to linear peptides of protein X5 of SARS-CoV Urbani / Binding of serum 37 to looped/cyclic peptides of protein X5 of SARS-CoV Urbani / Binding of serum 6 to linear peptides of protein N of SARS-CoV Urbani / Binding of serum 37 to linear peptides of protein N of SARS-CoV Urbani / Binding of serum 6 to linear peptide (PEPSCAN-ELISA) / Binding of serum 1a to looped/cyclic peptides of protein N of SARS-CoV Urbani / Binding of serum 1b to looped/cyclic peptides of protein N of SARS-CoV Urbani / Binding of serum 2 to looped/cyclic peptides of protein N of SARS-CoV Urbani / Binding of serum 6 to looped/cyclic peptides of protein N of SARS-CoV Urbani / Binding of serum 37 to looped/cyclic peptides of protein N of SARS-CoV Urbani / Binding of serum 62 to looped/cyclic peptides of protein N of SARS-CoV Urbani / Binding of serum London to looped/cyclic peptides of protein N of SARS-CoV Urbani / Binding of serum SARS-green to looped/cyclic peptides of protein N of SARS-CoV Urbani: unit not given here
# [2] = system: control sera (pooled serum of ten healthy LUMC hospital workers; commercial negative donor pooled serum from the Dutch bloodbank); assay type: binding, human; set-up: Binding of Control serum LUMC to linear peptides / Binding of Control serum Blood-bank to linear peptides / Binding of Control serum LUMC to looped peptides / Binding of Control Serum Blood-Bank to Looped peptides / Binding of Control serum LUMC to linear peptides of the protein M of SARS-CoV Urbani / Binding of Control serum Blood-bank to linear peptides of the protein M of SARS-CoV Urbani / Binding of Control serum LUMC to looped peptides of the protein M of SARS-CoV Urbani / Binding of Control Serum Blood-Bank to Looped peptides of the protein M of SARS-CoV Urbani: unit not given here
# [3] = system: rabbit serum obtained by immunizing a rabbit with the SARS-CoV strain Frankfurt 1; assay type: binding; set-up: Binding of a rabbit serum to linear peptides / Binding of a rabbit serum to looped peptides / Rabbit serum linear peptides / Rabbit serum looped peptides / Binding of a rabbit serum to linear peptides of protein N of SARS-CoV Urbani (Rabbit serum linear peptides) / Binding of a rabbit serum to looped/cyclic peptides of protein N of SARS-CoV Urbani (Rabbit serum looped peptides): unit not given here
# [4] = system: recombinant human anti-SARS-CoV antibody 03-018; assay type: binding; set-up: Binding of antibody 03-018 to linear peptides of the N protein of SARS-CoV Urbani / Binding of antibody 03-018 to looped/cyclic peptides of the N protein of SARS-CoV Urbani: unit not given here
Sequence,Binding of serum 1a to linear peptides of protein N of SARS-CoV Urbani [1],Binding of serum 1a to looped/cyclic peptides of protein N of SARS-CoV Urbani [1],Binding of serum 1b to linear peptides of protein N of SARS-CoV Urbani [1],Binding of serum 1b to looped/cyclic peptides of protein N of SARS-CoV Urbani [1],Binding of serum 2 to linear peptides of protein N of SARS-CoV Urbani [1],Binding of serum 2 to looped/cyclic peptides of protein N of SARS-CoV Urbani [1],Binding of serum 6 to linear peptides of protein N of SARS-CoV Urbani [1],Binding of serum 6 to looped/cyclic peptides of protein N of SARS-CoV Urbani [1],Binding of serum 37 to linear peptides of protein N of SARS-CoV Urbani [1],Binding of serum 37 to looped/cyclic peptides of protein N of SARS-CoV Urbani [1],Binding of serum 62 to linear peptides of protein N of SARS-CoV Urbani [1],Binding of serum 62 to looped/cyclic peptides of protein N of SARS-CoV Urbani [1],Binding of serum London to linear peptides of protein N of SARS-CoV Urbani [1],Binding of serum London to looped/cyclic peptides of protein N of SARS-CoV Urbani [1],Binding of serum SARS-green to linear peptides of protein N of SARS-CoV Urbani [1],Binding of serum SARS-green to looped/cyclic peptides of protein N of SARS-CoV Urbani [1],Binding of serum SARS-yellow to linear peptides of protein N of SARS-CoV Urbani [1],Binding of serum SARS-yellow to looped/cyclic peptides of protein N of SARS-CoV Urbani [1],Control Serum Blood-Bank Looped peptides [2],Control serum Blood-bank linear peptides [2],other results
GMSRIGMEVTPSGTW,0.3,0.3,0.1,0.2,0.2,0.3,0.2,0.2,0.7,0.5,0.7,0.5,0.5,0.4,0.5,0.3,0.7,0.5,0.6,0.6,Control serum LUMC linear peptides [2]: 0.6; Control serum LUMC looped peptides [2]: 0.5; Binding of a rabbit serum to linear peptides of protein N of SARS-CoV Urbani (Rabbit serum linear peptides) [3]: 0.1; Binding of a rabbit serum to looped/cyclic peptides of protein N of SARS-CoV Urbani (Rabbit serum looped peptides) [3]: 0.4; Binding of antibody 03-018 to linear peptides of the N protein of SARS-CoV Urbani [4]: 0.1; Binding of antibody 03-018 to looped/cyclic peptides of the N protein of SARS-CoV Urbani [4]: 0.2
HIDAYKTFPPTEPKK,0.2,0.2,0.1,0.1,0.2,0.2,0.2,0.1,0.6,0.3,0.6,0.2,0.4,0.3,0.2,0.0,0.5,0.0,0.4,0.6,Control serum LUMC linear peptides [2]: 0.7; Control serum LUMC looped peptides [2]: 0.3; Binding of a rabbit serum to linear peptides of protein N of SARS-CoV Urbani (Rabbit serum linear peptides) [3]: 0.1; Binding of a rabbit serum to looped/cyclic peptides of protein N of SARS-CoV Urbani (Rabbit serum looped peptides) [3]: 0.0; Binding of antibody 03-018 to linear peptides of the N protein of SARS-CoV Urbani [4]: 0.1; Binding of antibody 03-018 to looped/cyclic peptides of the N protein of SARS-CoV Urbani [4]: 0.2
NGPQSNQRSAPRITF,0.2,0.3,0.1,0.2,0.2,0.5,0.2,0.3,0.8,0.8,0.5,0.6,0.4,0.5,0.4,0.5,0.5,0.6,–,–,Binding of Control Serum Blood-Bank to Looped peptides [2]: 0.7; Binding of Control serum Blood-bank to linear peptides [2]: 0.8; Binding of Control serum LUMC to linear peptides [2]: 0.6; Binding of Control serum LUMC to looped peptides [2]: 0.8; Recognition of the peptide by the rabbit serum [3]: also recognized; Recognition of the peptide by antibody 03-018 [4]: recognized
QKKQPTVTLLPAADM,0.3,–,0.2,–,0.2,–,0.2,–,0.7,–,0.6,–,0.6,–,0.4,–,0.5,–,0.9,0.7,"Recognition of the peptide by sera of SARS-CoV infected individuals, and form (linear, looped/cyclic) in which it is recognized [1]: recognized in looped/cyclic form; Control serum LUMC linear peptides [2]: 0.6; Control serum LUMC looped peptides [2]: 0.7; Binding of a rabbit serum to linear peptides of protein N of SARS-CoV Urbani (Rabbit serum linear peptides) [3]: 0.2; Binding of a rabbit serum to looped/cyclic peptides of protein N of SARS-CoV Urbani (Rabbit serum looped peptides) [3]: 0.7; Binding of antibody 03-018 to linear peptides of the N protein of SARS-CoV Urbani [4]: 0.1; Binding of antibody 03-018 to looped/cyclic peptides of the N protein of SARS-CoV Urbani [4]: 0.3"
WLTYHGAIKLDDKDP,0.3,0.2,0.2,0.1,0.2,0.2,0.2,0.1,0.7,0.4,0.8,0.3,0.6,0.3,0.3,0.0,0.7,0.2,0.4,0.8,Control serum LUMC linear peptides [2]: 0.7; Control serum LUMC looped peptides [2]: 0.4; Binding of a rabbit serum to linear peptides of protein N of SARS-CoV Urbani (Rabbit serum linear peptides) [3]: 0.2; Binding of a rabbit serum to looped/cyclic peptides of protein N of SARS-CoV Urbani (Rabbit serum looped peptides) [3]: 0.2; Binding of antibody 03-018 to linear peptides of the N protein of SARS-CoV Urbani [4]: 0.1; Binding of antibody 03-018 to looped/cyclic peptides of the N protein of SARS-CoV Urbani [4]: 0.2
